Source: patent publication US20070254871A1, “Compounds for the Treatment of Inflammation of the Central Nervous System” (Neurotec Pharma, S.L., priority 2004, published 2007)

Test system: microglial reaction in rat hippocampal lesion
Experiment: Microglial reaction in rat hippocampal lesion (stereotaxic AMPA injection, IB4 histochemistry)
Assay type: in vivo
Conditions: for Density of reactive microcytes / Hippocampal microgliosis area: n=4, mean±S.E.M.
Experimental: This model relies on the acute stereotaxic over-activation of rat glutamate hippocampal receptors that results in a neurodegenerative process characterized by a neuronal loss with astroglial and microglial reactions (cf. F. Bernal et al., Hippocampus 2000, vol. 10, pp. 296-304; F. Bernal et al., Exp. Neurol. 2000, vol. 161, pp. 686-95). In this neurodegenerative model rats were anaesthetized with equithesin (a mixture of chloral hydrate and pentobarbital sodium; 0.3 ml/100 g body weight, i.p.) and placed on a Kopf stereotaxic frame with the incisor bar set at −3.3 mm. Intracerebral injections aimed at the dorsal hippocampus were performed at 3.3 mm caudal to bregma, 2.2 mm lateral and 2.9 mm ventral from dura (cf. G. Paxinos et al., “The rat brain in stereotaxic coordinates”, Sydney: Academic Press 1986). A volume of 0.5 μl was injected over a period of 5 min.
Four different groups of rats received two injections in a 2-hour interval as follows: a) sham rats (n=4) received two injections of PBS; b) AMPA rats (α-amino-3-hydroxy-5-methylisoxazole-4-propionic acid) (n=4) received the first injection of 5.4 mM AMPA and the second of PBS; c) diazoxide rats (n=4) received two injections of 50 μM diazoxide; d) AMPA+diazo rats (n=4) received 5.4 mM AMPA+50 μM diazoxide in the first injection and 50 μM diazoxide in the second injection. All rats were sacrificed 24 hours after the lesion.
Rats were transcardially perfused with 300 ml of 0.1 M phosphate buffer (PB, pH 7.4) followed by 300 ml ice-cold fixative (flow rate 20 ml/min). The fixative consisted of 4% (w/v) paraformaldehyde in PB. Brains were removed, crioprotected with 15% (w/v) sucrose in PB and then, frozen with dry ice. Cryostat sections (12 μm) were obtained at the level of dorsal hippocampus (−3.3 mm to bregma). Isolectine B4 (IB4) histochemistry was performed to identify the microglial reaction (cf. C. A. Colton et al., J. Histochem. Cytochem. 1992, vol. 40, pp. 505-12).
Microgliosis area evaluation was performed on IB4 positive stained sections, which were analyzed using a computer-assisted image analysis system (OPTIMAS®, BioScan Inc., Washington, USA). IB4-stained reactive microcytes were counted at ×100 magnification using an ocular grid mounted on a transmission light microscope (Axiolab, Zeiss, Göttingen, Germany). One-way ANOVA was used to compare differences between groups, followed by the LSD post-hoc test. Results were expressed as mean±S.E.M. All analyses were performed with the computer program STATGRAPHICS (STSC Inc., Rockville, Md., USA).

[1] = substance alone injected into dorsal hippocampus (diazoxide: two injections of 50 μM; AMPA: 5.4 mM then PBS), 24 hours
[2] = substance alone injected into dorsal hippocampus (diazoxide: two injections of 50 μM; AMPA: 5.4 mM then PBS), sacrificed 24 hours after the lesion
[3] = AMPA+diazo group: 5.4 mM AMPA+50 μM diazoxide in first injection, 50 μM diazoxide in second, 24 hours

Compound | Density of reactive microcytes [1] [cells/mm^2] | Hippocampal microgliosis area [2] [mm^2] | Microgliosis area as % of the AMPA group (AMPA+diazo group versus AMPA group, 24 hours) [%] | Density of reactive microcytes [3] [cells/mm^2] | Hippocampal microgliosis area [3] [mm^2] | Effect on microglial activation (in words) (diazoxide-treated animals compared with AMPA-treated animals)
Cc1onc(O)c1CC(N)C(=O)O (stereo not drawn) [AMPA, α-amino-3-hydroxy-5-methylisoxazole-4-propionic acid] | 645±59 | 0.44±0.07 |  |  |  | 
CC1=NS(=O)(=O)c2cc(Cl)ccc2N1 [diazoxide] | 555±91 | 0.19±0.03 | 37 | 603±56 | 0.16±0.02 | reduces microglial activation to sham values
